Results: ChEMBL document CHEMBL4699533, “Compounds from Toddalia asiatica: Immunosuppressant Activity and Absolute Configurations” (J Nat Prod, 2020)
Active and inactive are the calls of the source. The rule behind the calls is not given here.

Experiments:
[1] = (§1) Inhibition of anti-human CD3/CD28/mAbs-stimulated human T-cell proliferation after 72 hrs by CFSE staining based flow cytometric analysis; format: functional, tissue-based
T cell [2] = test: as §1; format: functional, tissue-based
[3] = Cytotoxicity against human T-cell assessed reduction in cell viability at 10 uM after 72 hrs; format: tissue-based
[4] = Cytotoxicity against human T-cell assessed reduction in cell viability at 30 uM after 72 hrs; format: tissue-based
T cell [5] = test: Inhibition of anti-human CD3/CD28/mAbs-stimulated human T-cell proliferation at 30 uM after 72 hrs by CFSE staining based flow cytometric analysis; format: functional, tissue-based

SMILES: COc1cc2c[n+](C)c3c4cc5c(cc4ccc3c2cc1OC)OCO5.[Cl-] [NITIDINE CHLORIDE]
- IC50 [1]: 0.4 µM
- inhibition (T cell [2]): Dose-dependent effect
- Activity [3]: Toxic
- Activity [4]: Toxic

SMILES: COc1cc(O)c(CCC(=O)O)c(OC)c1CC(O)C(C)(C)O (centres undefined)
- inhibition (T cell [5]): Active

SMILES: COc1ccc2c(c1OC)CN(C)CCc1cc3c(cc1C(=O)C2)OCO3
- inhibition (T cell [5]): Active

SMILES: COc1cc(C(=O)O)cc(OC)c1O
- inhibition (T cell [5]): Active

SMILES: COc1cc2oc(=O)ccc2c(OC)c1C[C@@H](O)C(C)(C)O[C@@H]1O[C@H](CO)[C@@H](O)[C@H](O)[C@H]1O
- inhibition (T cell [5]): Active

SMILES: COc1cc2c(cc1OC)-c1ccc3cc4c(cc3c1N(C)C2)OCO4
- IC50 [1]: 6.7 µM
- inhibition (T cell [2]): Dose-dependent effect
- Activity [4]: Toxic

SMILES: COc1cc2oc(=O)ccc2c(OC)c1C(=O)O
- inhibition (T cell [5]): Active

SMILES: COc1cc(/C=C/C(=O)OC[C@H]2O[C@@H](OC[C@H]3[C@H](CO)Cc4cc(OC)c(O)c(OC)c4[C@@H]3c3cc(OC)c(O)c(OC)c3)[C@H](O)[C@@H](O)[C@@H]2O)cc(OC)c1O
- inhibition (T cell [5]): Active

SMILES: COc1cc2oc(=O)ccc2c(OC)c1C[C@H](O)C(C)(C)O[C@@H]1O[C@H](CO)[C@@H](O)[C@H](O)[C@H]1O
- inhibition (T cell [5]): Active

SMILES: O=C(/C=C/c1ccc(O)cc1)NCCc1ccc(O)cc1
- inhibition (T cell [5]): Active

SMILES: COc1cc2oc(=O)ccc2c(OC)c1CC(O[C@@H]1O[C@H](CO)[C@@H](O)[C@H](O)[C@H]1O)C(C)(C)O (some centres undefined)
- inhibition (T cell [5]): Active

SMILES: COc1cc(/C=C/C(=O)OC[C@H]2O[C@@H](OC[C@@H](Cc3cc(OC)c(O)c(OC)c3)[C@@H](CO)Cc3cc(OC)c(O)c(OC)c3)[C@H](O)[C@@H](O)[C@@H]2O)cc(OC)c1O
- inhibition (T cell [5]): Active

SMILES: COc1ccc([C@@H]2CC(=O)c3c(O)cc(O[C@@H]4O[C@H](CO[C@@H]5O[C@@H](C)[C@H](O)[C@@H](O)[C@H]5O)[C@@H](O)[C@H](O)[C@H]4O)cc3O2)cc1O
- inhibition (T cell [5]): Active

SMILES: COc1cc2oc(=O)ccc2c(OC)c1CC(O)C(C)(C)O (centres undefined)
- inhibition (T cell [5]): Active
